From ChEMBL document CHEMBL2417501, “Synthesis of 4-aminoquinoline-pyrimidine hybrids as potent antimalarials and their mode of action studies” (Eur J Med Chem, 2013)

How the values were obtained:
[1] = Cytotoxicity against human HeLa cells; assay type: cell-based
[2] = test system: Mammalian orthoreovirus 1; assay: Antiviral activity against Reovirus-1 infected in african green monkey Vero cells assessed as reduction of virus-induced cytopathogenicity; assay type: functional, organism-based; settings: Mammalian orthoreovirus 1, Vero
[3] = Cytotoxicity against african green monkey Vero cells; assay type: cell-based; settings: chlorocebus sabaeus
Influenza B virus = assay: Antiviral activity against influenza B virus infected in dog MDCK cells assessed as reduction of virus-induced cytopathogenicity by MTS assay; assay type: functional, organism-based
[4] = (§1) Cytotoxicity against MDCK cells assessed as cell viability after 4 days by MTS assay; assay type: cell-based, Canis lupus familiaris; settings: dog, MDCK cells
Coxsackievirus [5] = assay: Antiviral activity against Coxsackievirus B4 infected in human HeLa cells assessed as reduction of virus-induced cytopathogenicity; assay type: functional, organism-based
Influenza A virus [6] = assay: Antiviral activity against influenza A virus H1N1 subtype infected in dog MDCK cells assessed as reduction of virus-induced cytopathogenicity by MTS assay; assay type: functional, organism-based
Human respirovirus 3 = assay: Antiviral activity against Parainfluenza-3 virus infected in african green monkey Vero cells assessed as reduction of virus-induced cytopathogenicity; assay type: functional, organism-based; settings: Human respirovirus 3, Vero
Sindbis virus = assay: Antiviral activity against Sindbis virus infected in african green monkey Vero cells assessed as reduction of virus-induced cytopathogenicity; assay type: functional, organism-based
Influenza A virus [7] = assay: Antiviral activity against influenza A virus […] subtype infected in dog MDCK cells assessed as reduction of virus-induced cytopathogenicity by MTS assay; assay type: functional, organism-based
Coxsackievirus [8] = assay: Antiviral activity against Coxsackievirus B4 infected in african green monkey Vero cells assessed as reduction of virus-induced cytopathogenicity; assay type: functional, organism-based
Cytomegalovirus [9] = assay: Antiviral activity against Cytomegalovirus AD-169 infected in human HEL cells assessed as reduction of plaque formation; assay type: functional, organism-based; settings: Human betaherpesvirus 5, AD-169, HEL
Human alphaherpesvirus 2 = assay: Antiviral activity against Herpes simplex virus-2 G infected in human HEL cells assessed as reduction of virus-induced cytopathogenicity; assay type: functional, organism-based; settings: Human alphaherpesvirus 2, strain G
[10] = Cytotoxicity against cat CRFK cells; assay type: cell-based, Felis catus
Human alphaherpesvirus 1 [11] = assay: Antiviral activity against Herpes simplex virus-1 KOS infected in human HEL cells assessed as reduction of virus-induced cytopathogenicity; assay type: functional, organism-based; settings: Human alphaherpesvirus 1, KOS
MDCK = assay: as §1; assay type: cell-based, Canis lupus familiaris; settings: dog, mdck, 96 h
[12] = test system: Respiratory syncytial virus; assay: Antiviral activity against Respiratory syncytial virus infected in human HeLa cells assessed as reduction of virus-induced cytopathogenicity; assay type: functional, organism-based
[13] = Inhibition of beta-hematin formation at 1 mg/ml; assay type: functional
[14] = test system: Vesicular stomatitis virus; assay: Antiviral activity against Vesicular stomatitis virus infected in human HEL cells assessed as reduction of virus-induced cytopathogenicity; assay type: functional, organism-based
Felid alphaherpesvirus 1 = assay: Antiviral activity against feline herpesvirus infected in cat CRFK cells assessed as reduction of virus-induced cytopathogenicity by MTS assay; assay type: functional, organism-based; settings: Felid alphaherpesvirus 1, CRFK
[15] = test system: Vesicular stomatitis virus; assay: Antiviral activity against Vesicular stomatitis virus infected in human HeLa cells assessed as reduction of virus-induced cytopathogenicity; assay type: functional, organism-based
Punta Toro virus = assay: Antiviral activity against […] infected in african green monkey Vero cells assessed as reduction of virus-induced cytopathogenicity; assay type: functional, organism-based
Human alphaherpesvirus 3 [16] = assay: Antiviral activity against […] Varicella-zoster virus 07-1 infected in human HEL cells assessed as reduction of plaque formation; assay type: functional, organism-based; settings: Human alphaherpesvirus 3, 07-1, HEL
Human alphaherpesvirus 3 [17] = assay: Antiviral activity against TK-positive Varicella-zoster virus OKA infected in human HEL cells assessed as reduction of plaque formation; assay type: functional, cell-based; settings: Human alphaherpesvirus 3, strain Oka vaccine
Feline coronavirus = assay: Antiviral activity against Feline coronavirus infected in cat CRFK cells assessed as reduction of virus-induced cytopathogenicity by MTS assay; assay type: functional, organism-based; settings: Alphacoronavirus 1, CRFK
[18] = Cytotoxicity against human HEL cells; assay type: cell-based
Plasmodium falciparum [19] = assay: Antimalarial activity against chloroquine-sensitive Plasmodium falciparum D10 by two-fold dilution technique; assay type: functional, organism-based
Cytomegalovirus [20] = assay: Antiviral activity against Cytomegalovirus Davis infected in human HEL cells assessed as reduction of plaque formation; assay type: functional, organism-based; settings: Human betaherpesvirus 5, Davis
Human alphaherpesvirus 1 [21] = assay: Antiviral activity against TK-negative Herpes simplex virus 1 KOS infected in human HEL cells assessed as reduction of virus-induced cytopathogenicity; assay type: functional, organism-based; settings: Human alphaherpesvirus 1, KOS
[22] = Selectivity index, ratio of CC50 for MDCK cells to IC50 for chloroquine-resistant Plasmodium falciparum Dd2; assay type: functional
Plasmodium falciparum [23] = assay: Antimalarial activity against chloroquine-resistant Plasmodium falciparum Dd2; assay type: functional, organism-based

SMILES | MCC [1] | EC50 [2] | MCC [3] | EC50 (Influenza B virus) | MCC at 96 h [4] | EC50 (Coxsackievirus [5]) | EC50 (Influenza A virus [6]) | EC50 (Human respirovirus 3) | EC50 (Sindbis virus) | EC50 (Influenza A virus [7]; read-out: EC50) | EC50 (Coxsackievirus [8]) | EC50 (Cytomegalovirus [9]) | EC50 [12] | EC50 [14] | EC50 [15] | EC50 (Punta Toro virus) | EC50 (Human alphaherpesvirus 3 [16]) | EC50 (Feline coronavirus) | MCC [18] | EC50 (Cytomegalovirus [20]) | also measured
NC(=O)c1ncn([C@@H]2O[C@H](CO)[C@@H](O)[C@H]2O)n1 [RIBAVIRIN] | > 250 µM | > 250 µM | > 250 µM | 2.8 µM | > 100 µM | 112 µM | 2.5 µM | 146 µM | > 250 µM | 1.1 µM | > 250 µM |  |  |  |  |  |  |  |  |  | 
CCOC(=O)c1c(C)nc(NCCCCNc2ccnc3cc(Cl)ccc23)nc1-c1ccc(F)cc1 | > 100 µM | > 4 µM | 20 µM | > 4 µM | 20 µM | > 100 µM | > 4 µM | > 4 µM | > 4 µM | > 4 µM | > 4 µM | > 4 µM | > 100 µM | > 100 µM | > 100 µM | > 4 µM | > 4 µM | > 100 µM | ≥ 20 µM | > 4 µM | EC50 (Human alphaherpesvirus 2): > 100 µM; CC50 ([10]; crfk): > 100 µM; EC50 (Human alphaherpesvirus 1 [11]): > 100 µM; CC50 (MDCK): 11.4 µM; inhibition [13]: 59%; EC50 (Felid alphaherpesvirus 1): > 100 µM; EC50 (Human alphaherpesvirus 3 [17]): > 4 µM; IC50 (Plasmodium falciparum [19]): 2.76 µM; EC50 (Human alphaherpesvirus 1 [21]): > 100 µM
NC12CC3CC(CC(C3)C1)C2 [AMANTADINE] |  |  |  | > 200 µM | > 200 µM |  | 17 µM |  |  |  |  |  |  |  |  |  |  |  |  |  | EC50 (Influenza A virus [7]): 0.3 µM
CCOC(=O)c1c(C)nc(OCCCNc2ccnc3cc(Cl)ccc23)nc1-c1ccccc1 | > 100 µM | > 20 µM | 100 µM | > 4 µM | 20 µM | > 100 µM | > 4 µM | > 20 µM | > 20 µM | > 4 µM | > 20 µM | 2 µM | > 100 µM | > 100 µM | > 100 µM | > 20 µM | > 4 µM | > 100 µM | > 4 µM | 2.53 µM | EC50 (Human alphaherpesvirus 2): > 100 µM; CC50 ([10]; crfk): > 100 µM; Ratio CC50/IC50 [22]: 43.6; IC50 (Plasmodium falciparum [23]): 0.483 µM; EC50 (Human alphaherpesvirus 1 [11]): > 100 µM; CC50 (MDCK): 21.1 µM; inhibition [13]: 87%; EC50 (Felid alphaherpesvirus 1): > 100 µM; EC50 (Human alphaherpesvirus 3 [17]): > 4 µM; EC50 (Human alphaherpesvirus 1 [21]): > 100 µM
Nc1nc2c(ncn2COCCO)c(=O)[nH]1 [ACYCLOVIR] |  |  |  |  |  |  |  |  |  |  |  |  |  | > 250 µM |  |  | 144 µM |  | > 250 µM |  | 
CC(N)C12CC3CC(CC(C3)C1)C2 (configuration not stated) [RIMANTADINE] |  |  |  | > 200 µM | > 200 µM |  | 6.4 µM |  |  | 0.01 µM |  |  |  |  |  |  |  |  |  |  | 
Nc1nc2c(ncn2COC(CO)CO)c(=O)[nH]1 [GANCICLOVIR] |  |  |  |  |  |  |  |  |  |  |  | 7.87 µM |  | > 100 µM |  |  |  | > 100 µM | > 100 µM | 5.98 µM | CC50 ([10]; CRFK cells): > 100 µM; EC50 (Human alphaherpesvirus 1 [21]): 4 µM
Nc1ncnc2c1ncn2C[C@H](O)CO [(S)-DHPA] | > 250 µM | > 250 µM | > 250 µM |  |  | > 250 µM |  | 146 µM | > 250 µM |  | > 250 µM |  | > 250 µM |  | > 250 µM | > 250 µM |  |  |  |  | 
CCOC(=O)c1c(C)nc(NCCCCNc2ccnc3cc(Cl)ccc23)nc1-c1ccc(Cl)cc1 | > 100 µM | > 0.8 µM | 4 µM | > 0.8 µM | ≥ 0.8 µM | > 100 µM | > 0.8 µM | > 0.8 µM | > 0.8 µM | > 0.8 µM | > 0.8 µM | > 4 µM | > 100 µM | > 20 µM | > 100 µM | > 0.8 µM | > 4 µM | > 100 µM | 20 µM | > 4 µM | EC50 (Human alphaherpesvirus 2): > 20 µM; CC50 ([10]; crfk): > 100 µM; EC50 (Human alphaherpesvirus 1 [11]): > 20 µM; CC50 (MDCK): 2.2 µM; inhibition [13]: 56%; EC50 (Felid alphaherpesvirus 1): > 100 µM; EC50 (Human alphaherpesvirus 3 [17]): > 4 µM; IC50 (Plasmodium falciparum [19]): 1.93 µM; EC50 (Human alphaherpesvirus 1 [21]): > 20 µM
